Test results as given in patent US20240156789A1, “ORAL FELINE FEED AND METHODS FOR CONTROLLING FLEA INFESTATIONS IN A FELINE” (priority 2021, published 2024).

What was measured:
Type in all cases: in vivo
[1] = Example 1: average plasma concentration of isoxazoline in cats, daily oral liquid dosing; details: 1.125 mg/kg daily oral
Protocol: (§1) Each cat in the isoxazoline treatment group is to receive by mouth a liquid formulation of isoxazoline. The dosage of 1.125 mg/kg of isoxazoline is to be administered to the cats on each of days 0-29.
Using the same study method as described above, blood is to be drawn at 72, 168, 336, 504, 720 and 888 hours after the initial dose of isoxazoline is administered. The average concentration of isoxazoline in the blood can then be determined.

Ctenocephalides felis [2] = assay: Example 6: efficacy of Mivorilaner in medicated feed in cats against fleas
Description: FIG. 1. A graph of the arithmetic mean efficacy for treatment Group 2 (vertical hash) and Group 3 (horizontal hash). Percent efficacy=[AM fleas CONTROL−AM fleas TREATED]/AM fleas CONTROL Efficacy measured at 2, 9, 16, 30, and 37 days after Initial Treatment.
Methods: A pool of cats are to be preliminarily infested with ˜100 unfed adult C. felis fleas in order to produce cats that can suitably sustain a reliable infestation rate, defined as approximately 50% retention of live fleas at the end of a 48-hour period. The cats with the highest live flea counts are to be randomly assigned to a single control group (Group 1) and 2 medicated feed treatment groups (Groups 2 and 3) with 4 cats per group. The cats in groups 2 and 3 will receive Mivorilaner.
(§2) The cats are to be housed individually during the study period and are to have ad libitum access to water.
Each cat in a treatment group (Groups 2 and 3) is to receive a medicated daily feed from study days 0-29 according to TABLE 4.
The cats are to be fasted overnight prior to each daily treatment. The daily dose of Mivorilaner is to be mixed into a small portion (approximately 25% of the cat's daily dietary needs) of wet canned cat food. Approximately 4 hours after the medicated feed has been initially offered, the remaining medicated feed, if any, will be mixed with the 75% unmedicated daily feed for each cat. […]

[3] = Example 5: plasma levels of isoxazoline in cats given two medicated feed formulations; details: 1 mg/kg daily, days 0-14
Protocol: Methods: A pool of cats are to be randomly assigned to a single control group and 2 treatment groups with 6 cats per group.
as §2
Each cat in a treatment group (test groups 2 and 3) is to receive one of two medicated daily feeds from study days 0-14. The medicated daily feed is to be offered to the cats for 1 hour on each of days 0-14 according to TABLE 3.
Blood is to be drawn at day 0 (day of the first administration of medicated feed) and days 2, 4, 7, 10, 14, 21 and 30 after the initial dose of isoxazoline is administered. The average concentration of isoxazoline in the blood for each of the medicated feed formulations (treatment groups 2 and 3) can then be determined.

Ctenocephalides felis [4] = assay: Example 1: efficacy of isoxazoline liquid formulation given by mouth to cats against fleas; details: 1.125 mg/kg by mouth daily on days 0-29, liquid formulation, fed
Description: Methods: A pool of 14 cats are to be preliminarily infested with ˜100 unfed adult C. felis in order to identify cats that can suitably sustain a reliable infestation rate, defined as approximately 50% fleas being live at the end of a 48-hour period. The 12 cats with the highest live flea counts are to be selected for inclusion in the study. The cats are to be randomized and divided into a control group and a treatment group with 6 cats per group.
The cats are to be housed individually during the study period and are to be fed a commercial dry cat food ration with ad libitum access to water.
as §1
Cats in the control group are not to receive isoxazoline or any other flea control treatment. Each cat in the treatment group is to be offered its daily ration (dry food) and the individual doses of liquid formulation are to be administered after the individual cat has eaten at least 25% of its total daily ration. After receiving the dose of isoxazoline, the cats are to be allowed to continue eating. This mimics incorporating the isoxazoline in feed. Each cat in the treatment group and the control group is to be experimentally infested with 100 unfed adult fleas on test days −1, 5, 12, 20 and 35. […]

O=C(CNC(=O)c1sc(C2=NO[C@@](c3cc(Cl)c(F)c(Cl)c3)(C(F)(F)F)C2)c2c1CCC2)NCC(F)F [mivorilaner, 3-[(5S)-5-(3,5-dichloro-4-fluorophenyl)-5-(trifluoromethyl)-4,5-dihydroisoxazol-3-yl]-N-[2-[(2,2-difluoroethyl)amino]-2-oxoethyl]-5,6-dihydro-4H-cyclopenta[c]thiophene-1-carboxamide]
average plasma concentration ([1]; at 72 hours): about 1011 ng/mL | average plasma concentration ([1]; at 504 hours): about 4088 ng/mL | average plasma concentration ([1]; at 888 hours, approximately 8 days after the final dose): about 3025 ng/mL | Percent efficacy (reduction in live and moribund flea counts) (Ctenocephalides felis [2]; Group 2, 0.75 mg/kg daily in wet canned cat food days 0-29, by day 9): 100% | Percent efficacy (reduction in live and moribund flea counts) (Ctenocephalides felis [2]; Group 3, 1.5 mg/kg daily in wet canned cat food days 0-29, by day 9): 100% | plasma concentrations [3]: consistent between treatment groups 2 and 3 | reduction in live flea counts over the control group (Ctenocephalides felis [4]): at least 95%
